From patent US9109004B2, “Progesterone receptor antagonists” (Bayer Intellectual Property GmbH, priority 2010, dated 2015)

Biological target: T1, human progesterone receptor A (Homo sapiens, UniProt P06401)
T1 construct: expressed in transfected cells; host or cells: SK-N-MC human neuroblastoma cells, stably transfected
T1 sequence (P06401 1-769 isoform P06401-2): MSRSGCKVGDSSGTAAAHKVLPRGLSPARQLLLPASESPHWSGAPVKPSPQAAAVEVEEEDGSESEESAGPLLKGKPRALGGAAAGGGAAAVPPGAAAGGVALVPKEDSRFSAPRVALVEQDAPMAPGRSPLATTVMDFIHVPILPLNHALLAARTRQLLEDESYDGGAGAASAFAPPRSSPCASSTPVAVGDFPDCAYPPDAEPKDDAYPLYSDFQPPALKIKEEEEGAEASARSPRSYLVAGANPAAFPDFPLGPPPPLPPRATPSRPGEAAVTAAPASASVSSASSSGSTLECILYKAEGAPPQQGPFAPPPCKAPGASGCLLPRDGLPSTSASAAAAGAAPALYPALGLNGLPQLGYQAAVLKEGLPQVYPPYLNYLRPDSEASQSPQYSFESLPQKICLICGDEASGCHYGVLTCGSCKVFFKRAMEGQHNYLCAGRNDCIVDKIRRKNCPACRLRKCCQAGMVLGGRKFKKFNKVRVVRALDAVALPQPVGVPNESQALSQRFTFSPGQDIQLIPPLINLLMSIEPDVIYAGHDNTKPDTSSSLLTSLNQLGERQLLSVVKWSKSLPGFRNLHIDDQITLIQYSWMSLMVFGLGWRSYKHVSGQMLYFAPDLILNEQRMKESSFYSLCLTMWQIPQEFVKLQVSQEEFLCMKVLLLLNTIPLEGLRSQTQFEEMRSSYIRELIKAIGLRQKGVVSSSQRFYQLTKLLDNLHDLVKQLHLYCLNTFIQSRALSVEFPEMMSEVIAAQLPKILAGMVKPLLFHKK
Experiment: Progesterone-receptor-antagonistic action in stably transfected SK-N-MC cells, MTV-LUC reporter (PR-A)
Format: cell-based
Details: antagonistic potency vs 0.1 nmol/l promegestone, 24 hours, luciferase
Description: Progesterone-Receptor-Antagonistic Action in Stable Transfectants of Human Neuroblastoma Cells (SK-N-MC Cells) with the Human Progesterone A or Progesterone B Receptor and an MTV-LUC Reporter Construct
SK-N-MC cells (human neuroblastoma cells) that have been stably transfected with plasmids that express the human progesterone receptor B (pRChPR-B-neo) or the human progesterone receptor A (pRChPR-A-neo) and a reporter construct (pMMTV-LUC), were incubated for 24 hours either in the absence (negative control) or in the presence of increasing amounts of the particular test compound (0.01 nmol/l, 0.1 nmol/l, 1 nmol/l, 10 nmol/l, 100 nmol/l and 1 μmol/l), to determine the agonistic efficacy. As positive control of reporter gene induction, the cells were treated with the synthetic gestagen promegestone (0.01 nmol/l, 0.1 nmol/l, 1 nmol/l, 10 nmol/l, 100 nmol/l and 1 μmol/l). For determination of the antagonistic activity, the cells were treated with 0.1 nmol/l promegestone and additionally with increasing amounts of the particular test compound (0.01 nmol/l, 0.1 nmol/l, 1 nmol/l, 10 nmol/l, 100 nmol/l and 1 μmol/l). The activity of the reporter gene LUC (LUC=luciferase) was determined in the cell lysates and was measured as RLU (relative light units). All measured values are given as % efficacy and as EC50 or IC50 concentrations.

Row | Structure (SMILES) | IC50 [nM]
1 | C[C@]12C[C@H](c3ccc(C(=O)NCCN4CCCC4)cc3)C3=C4CCC(=O)C=C4CC[C@H]3[C@@H]1CC[C@@]2(O)C(F)(F)C(F)(F)F [Example 54, 4-[(11β,17β)-17-hydroxy-3-oxo-17-(pentafluoroethyl)estra-4,9-dien-11-yl]-N-[2-(pyrrolidin-1-yl)ethyl]benzamide] | 21
2 | C[C@]12C[C@H](c3ccc(C(=O)NCCc4cccnc4)cc3)C3=C4CCC(=O)C=C4CC[C@H]3[C@@H]1CC[C@@]2(O)C(F)(F)C(F)(F)F [Example 55, 4-[(11β,17β)-17-hydroxy-3-oxo-17-(pentafluoroethyl)estra-4,9-dien-11-yl]-N-[2-(pyridin-3-yl)ethyl]benzamide] | 2.5
3 | C[C@]12C[C@H](c3ccc(C(=O)NCc4cccc(Cl)c4)cc3)C3=C4CCC(=O)C=C4CC[C@H]3[C@@H]1CC[C@@]2(O)C(F)(F)C(F)(F)F [Example 56, N-(3-chlorobenzyl)-4-[(11β,17β)-17-hydroxy-3-oxo-17-(pentafluoroethyl)estra-4,9-dien-11-yl]benzamide] | 2.3
4 | COC(=O)c1cccc(NC(=O)c2ccc([C@H]3C[C@@]4(C)[C@@H](CC[C@@]4(O)C(F)(F)C(F)(F)F)[C@@H]4CCC5=CC(=O)CCC5=C43)cc2)c1 [Example 57, methyl-3-({4-[(11β,17β)-17-hydroxy-3-oxo-17-(pentafluoroethyl)estra-4,9-dien-11-yl]benzoyl}amino)benzoate] | 0.8
5 | CN(CCc1ccncc1)C(=O)c1ccc([C@H]2C[C@@]3(C)[C@@H](CC[C@@]3(O)C(F)(F)C(F)(F)F)[C@@H]3CCC4=CC(=O)CCC4=C32)cc1 [Example 58, 4-[(11β,17β)-17-hydroxy-3-oxo-17-(pentafluoroethyl)estra-4,9-dien-11-yl]-N-methyl-N-[2-(pyridin-4-yl)ethyl]benzamide] | 5.7
6 | C[C@]12C[C@H](c3ccc(C(=O)NCC4CC4)cc3)C3=C4CCC(=O)C=C4CC[C@H]3[C@@H]1CC[C@@]2(O)C(F)(F)C(F)(F)F [Example 59, N-(cyclopropylmethyl)-4-[(11β,17β)-17-hydroxy-3-oxo-17-(pentafluoroethyl)estra-4,9-dien-11-yl]benzamide] | 6.9
7 | C[C@]12C[C@H](c3ccc(C(=O)Nc4ccc(C(=O)Nc5ccccc5)cc4)cc3)C3=C4CCC(=O)C=C4CC[C@H]3[C@@H]1CC[C@@]2(O)C(F)(F)C(F)(F)F [Example 60, 4-[(11β,17β)-17-hydroxy-3-oxo-17-(pentafluoroethyl)estra-4,9-dien-11-yl]-N-[4-(phenylcarbamoyl)phenyl]benzamide] | 0.39
8 | C[C@]12C[C@H](c3ccc(C(=O)NCCc4ccccn4)cc3)C3=C4CCC(=O)C=C4CC[C@H]3[C@@H]1CC[C@@]2(O)C(F)(F)C(F)(F)F [Example 61, 4-[(11β,17β)-17-hydroxy-3-oxo-17-(pentafluoroethyl)estra-4,9-dien-11-yl]-N-[2-(pyridin-2-yl)ethyl]benzamide] | 1.6
9 | CN1CCN(CCNC(=O)c2ccc([C@H]3C[C@@]4(C)[C@@H](CC[C@@]4(O)C(F)(F)C(F)(F)F)[C@@H]4CCC5=CC(=O)CCC5=C43)cc2)CC1 [Example 62, 4-[(11β,17β)-17-hydroxy-3-oxo-17-(pentafluoroethyl)estra-4,9-dien-11-yl]-N-[2-(4-methylpiperazin-1-yl)ethyl]benzamide] | 94
10 | C[C@]12C[C@H](c3ccc(C(=O)N4CCC(c5ccccc5)CC4)cc3)C3=C4CCC(=O)C=C4CC[C@H]3[C@@H]1CC[C@@]2(O)C(F)(F)C(F)(F)F [Example 63, (11β,17β)-17-hydroxy-17-(pentafluoroethyl)-11-{4-[(4-phenylpiperidin-1-yl)carbonyl]phenyl}estra-4,9-dien-3-one] | 4.1
11 | C[C@]12C[C@H](c3ccc(C(=O)NCCc4ccncc4)cc3)C3=C4CCC(=O)C=C4CC[C@H]3[C@@H]1CC[C@@]2(O)C(F)(F)C(F)(F)F [Example 64, 4-[(11β,17β)-17-hydroxy-3-oxo-17-(pentafluoroethyl)estra-4,9-dien-11-yl]-N-[2-(pyridin-4-yl)ethyl]benzamide] | 1.1
12 | C[C@]12C[C@H](c3ccc(C(=O)N4CCN(C(=O)c5ccccc5)CC4)cc3)C3=C4CCC(=O)C=C4CC[C@H]3[C@@H]1CC[C@@]2(O)C(F)(F)C(F)(F)F [Example 65, (11β,17β)-11-{4-[(4-benzoylpiperazin-1-yl)carbonyl]phenyl}-17-hydroxy-17-(pentafluoroethyl)estra-4,9-dien-3-one] | 2.7
13 | CN(C)C(=O)N1CCN(C(=O)c2ccc([C@H]3C[C@@]4(C)[C@@H](CC[C@@]4(O)C(F)(F)C(F)(F)F)[C@@H]4CCC5=CC(=O)CCC5=C43)cc2)CC1 [Example 66, 4-{4-[(11β,17β)-17-hydroxy-3-oxo-17-(pentafluoroethyl)estra-4,9-dien-11-yl]benzoyl}-N,N-dimethylpiperazine-1-carboxamide] | 35
14 | C[C@]12C[C@H](c3ccc(C(=O)N4CCN(S(C)(=O)=O)CC4)cc3)C3=C4CCC(=O)C=C4CC[C@H]3[C@@H]1CC[C@@]2(O)C(F)(F)C(F)(F)F [Example 67, (11β,17β)-17-hydroxy-11-(4-{[4-(methylsulphonyl)piperazin-1-yl]carbonyl}phenyl)-17-(pentafluoroethyl)estra-4,9-dien-3-one] | 6.3
15 | C[C@]12C[C@H](c3ccc(C(=O)N4CCN(Cc5ccccn5)CC4)cc3)C3=C4CCC(=O)C=C4CC[C@H]3[C@@H]1CC[C@@]2(O)C(F)(F)C(F)(F)F [Example 68, (11β,17β)-17-hydroxy-17-(pentafluoroethyl)-11-(4-{[4-(pyridin-2-ylmethyl)piperazin-1-yl]carbonyl}phenyl)estra-4,9-dien-3-one] | 16
16 | C[C@]12C[C@H](c3ccc(C(=O)N4CCN(Cc5cccnc5)CC4)cc3)C3=C4CCC(=O)C=C4CC[C@H]3[C@@H]1CC[C@@]2(O)C(F)(F)C(F)(F)F [Example 69, (11β,17β)-17-hydroxy-17-(pentafluoroethyl)-11-(4-{[4-(pyridin-3-ylmethyl)piperazin-1-yl]carbonyl}phenyl)estra-4,9-dien-3-one] | 7.3
17 | COC(=O)N1CCN(C(=O)c2ccc([C@H]3C[C@@]4(C)[C@@H](CC[C@@]4(O)C(F)(F)C(F)(F)F)[C@@H]4CCC5=CC(=O)CCC5=C43)cc2)CC1 [Example 70, methyl-4-{4-[(11β,17β)-17-hydroxy-3-oxo-17-(pentafluoroethyl)estra-4,9-dien-11-yl]benzoyl}piperazine-1-carboxylate] | 1.7
18 | CNC(=O)CN1CCN(C(=O)c2ccc([C@H]3C[C@@]4(C)[C@@H](CC[C@@]4(O)C(F)(F)C(F)(F)F)[C@@H]4CCC5=CC(=O)CCC5=C43)cc2)CC1 [Example 71, 2-(4-{4-[(11β,17β)-17-hydroxy-3-oxo-17-(pentafluoroethyl)estra-4,9-dien-11-yl]benzoyl}piperazin-1-yl)-N-methylacetamide] | 38
19 | CN(CCc1cccnc1)C(=O)c1ccc([C@H]2C[C@@]3(C)[C@@H](CC[C@@]3(O)C(F)(F)C(F)(F)F)[C@@H]3CCC4=CC(=O)CCC4=C32)cc1 [Example 72, 4-[(11β,17β)-17-hydroxy-3-oxo-17-(pentafluoroethyl)estra-4,9-dien-11-yl]-N-methyl-N-[2-(pyridin-3-yl)ethyl]benzamide] | 1.4
